≈ marks a conversion by molar mass, not a printed value. Where “and” joins values, the source holds several entries; their conditions need not be identical. Equal values may be shown once. Read-outs that look alike come from different tables or passages of the source. Starred links: 1 amine or outer side, 2 acyl side, 3 side chain; linkers in the order of their positions; H or OH if unused. Non-standard residues stand in square brackets, D forms with d. Residues, ends and D or L forms follow the SMILES beside them. *: point of attachment. NH(3-CONH2-4-OMe-phenyl) = COc1ccc(N*)cc1C(N)=O; 3Abz(6-OMe) = COc1ccc(N[*:1])cc1C(=O)[*:2]; X1 = O=C(O)COc1ccc(N[*:1])cc1C(=O)[*:2]
Key:
tinzaparin = experiment: FXa amidolytic assay (Example 10), tinzaparin; settings: read-out: Tinzap FXa EC50
Method: (§1) Two μl of test agent are added (range between 0.01 and 23 ug/ml) and incubated for 5 minutes at 23° C. Bovine Factor Xa was added to a final concentration of 0.636 nkat/mL and incubated for a further 10 minutes at 23° C.

[1] = system: isolated human erythrocytes; experiment: cells; assay type: cell-based; settings: Homo sapiens, Erythrocyte, 1 h, read-out: Hemolysis EC50
Method: Hemolysis assay: Cytotoxicity was also evaluated in a hemolysis assay using isolated human erythrocytes. Pooled whole human blood was centrifuged to separate the red blood cells (RBC). The isolated RBCs were rinsed and diluted in Tris-buffered saline (TBS buffer, pH 7.4) to obtain a 0.22% RBC stock suspension. Serial two-fold dilutions of test agent were assayed over a concentration range of 1000 to 0.48 μg/ml with shaking for 1 hour at 37° C. At the conclusion of the incubation time, samples were centrifuged and 30 μl of the supernatant was added to 100 μl H2O. OD405 measurements were read for hemoglobin concentration. The bee venom peptide melittin was used as a positive control. EC50 values were determined using a four parameter logistic equation: Y=Bottom+(Top-Bottom)/(1+10̂((LogEC50-X)*HillSlope)).

Unfractionated heparin = experiment: aPTT clotting assay, UFH 0.4 U/mL in plasma (Example 10); assay type: biochemical
Method: aPTT clotting Assay: Unfractionated heparin was mixed with plasma at a final concentration of 0.4 U/mL (or concentration which increases aPTT time to between 120 and 300 seconds). […] The ACL Elite Hemostasis analyzer (Beckman Coulter™) was used to add aPTT reagent (HemosIL SynthASil) to supplemented plasma. Clotting was initiated by addition of CaCl2 and time to clot was recorded.

enoxaparin = experiment: FXa amidolytic assay (Example 10), enoxaparin; settings: read-out: Enox FXa EC50
Method: as §1

[2] = Cytotoxicity colorimetric assay, HepG2; assay type: cell-based, human; settings: human, HepG2 cells, one hour in serum-free media
Method: This assay measures the bioreduction of a novel tetrazolium compound to a soluble formazan product by viable cells. HepG2 cells were seeded in 96 well plates at 3×10^4 cells/well in MEM medium with 10% fetal bovine serum (FBS) 24 hours prior to use. NIH/3T3 cells were seeded in 96 well plates at 2×10^4 cells/well in DMEM medium with 10% bovine calf serum (BCS) 24 hours prior to use. Cell monolayers were rinsed in serum-free media and incubated for one hour with test agent in serum-free media. After incubation, the media was replaced with serum supplemented media and live cells were measured using the Cell Titer 96 Aqueous […] Assay kit (Promega, Madison, Wis.). EC50 values were determined using a four parameter logistic equation: Y=Bottom+(Top-Bottom)/(1+10̂((LogEC50-X)*HillSlope)).

fondaparinux = experiment: FXa amidolytic assay (Example 10), fondaparinux; settings: read-out: Fondap FXa EC50
Method: as §1

UFH = experiment: FXa amidolytic assay (Example 10), UFH; settings: read-out: Heparin FXa uM EC50
Method: as §1

[3] = tinzaparin 0.1 ug/ml, human antithrombin, bovine Factor Xa
[4] = unfractionated heparin 0.4 U/mL in plasma, aPTT clotting
[5] = enoxaparin 0.1 ug/ml, human antithrombin, bovine Factor Xa
[6] = fondaparinux 0.02 μg/mL, human antithrombin, bovine Factor Xa
[7] = UFH 0.03 units/mL, human antithrombin, bovine Factor Xa

| Structure (SMILES) | EC50 (tinzaparin; [3]) | EC50 ([1]; human RBC, 1 hour at 37° C.) [µg/mL] | EC50 (Unfractionated heparin; [4]) | EC50 (enoxaparin; [5]) | EC50 at 1 h [2] [µg/mL] | EC50 (fondaparinux; [6]) | EC50 (UFH; [7]) [µM] | EC50 [1] [µg/mL] | EC50 (tinzaparin) [µM] | EC50 (Unfractionated heparin) [µM] | EC50 (enoxaparin) [µM] | EC50 (fondaparinux) [µM] | EC50 (UFH) [µM] |
| --- | --- | --- | --- | --- | --- | --- | --- | --- | --- | --- | --- | --- | --- |
| COc1ccc(NC(=O)[C@@H](CCCNC(=N)N)NC(=O)c2cc(NC(=O)[C@@H](CCCNC(=N)N)NC(=O)c3cc(NC(=O)[C@@H](CCCNC(=N)N)NC(=O)c4cc(NC(C)=O)ccc4OC)ccc3OC)ccc2OC)cc1C(N)=O [Compound 229] | 0.167 µM and 0.164 µM | ~500 (≈ 445 µM) | 1.85 µM and 2.27 µM | 0.215 µM and 0.207 µM | > 1000 | 0.587 µM and 0.322 µM | – | – | – | – | – | – | – |
| COc1ccc(NC(=O)[C@H](CCCNC(=N)N)NC(=O)c2cc(NC(=O)[C@H](CCCNC(=N)N)NC(=O)c3cc(NC(=O)[C@H](CCCNC(=N)N)NC(=O)c4cc(NC(C)=O)ccc4OC)ccc3OC)ccc2OC)cc1C(=O)N[C@@H](Cc1c[nH]c2ccccc12)C(=O)O [Compound 310] | 0.141 µM | ~1000 (≈ 763 µM) | > 10 µM | 0.119 µM | – | 0.098 µM | 0.242 | – | – | – | – | – | – |
| COc1ccc(NC(=O)[C@@H](CCCNC(N)=O)NC(=O)c2cc(NC(=O)[C@@H](CCCNC(=N)N)NC(=O)c3cc(NC(=O)[C@@H](CCCNC(=N)N)NC(=O)c4cc(NC(C)=O)ccc4OC)ccc3OC)ccc2OCC(=O)O)cc1C(=O)N[C@H](Cc1c[nH]c2ccccc12)C(N)=O [Compound 332] | > 5 µM | 1000 (≈ 738 µM) | > 10 µM | > 5 µM | – | > 5 µM | > 5 | – | – | – | – | – | – |
| COc1ccc(NC(=O)[C@@H](CCCNC(N)=O)NC(=O)c2cc(NC(=O)[C@@H](CCCNC(N)=O)NC(=O)c3cc(NC(=O)[C@@H](CCCNC(=N)N)NC(=O)c4cc(NC(C)=O)ccc4OC)ccc3OC)ccc2OCC(=O)O)cc1C(=O)N[C@H](Cc1c[nH]c2ccccc12)C(N)=O [Compound 333] | > 5 µM | 1000 (≈ 737 µM) | > 10 µM | > 5 µM | – | > 5 µM | > 5 | – | – | – | – | – | – |
| COc1ccc(NC(=O)[C@H](CCCCN)NC(=O)c2cc(NC(=O)[C@H](CCCCN)NC(=O)c3cc(NC(=O)[C@H](CCCCN)NC(=O)c4cc(NC(=O)[C@H](CCCCN)NC(=O)[C@@H](N)Cc5c[nH]c6ccccc56)ccc4OC)ccc3OC)ccc2OC)cc1C(N)=O [Compound 351] (H-WK[3Abz(6-OMe)]K[3Abz(6-OMe)]K[3Abz(6-OMe)]K-{NH(3-CONH2-4-OMe-phenyl)}) | 0.114 µM | > 1000 | 1.93 µM | 0.214 µM | – | 1.11 µM | 0.194 | – | – | – | – | – | – |
| COc1ccc(NC(=O)[C@H](CCCCN)NC(=O)c2cc(NC(=O)[C@H](CCCCN)NC(=O)c3cc(NC(=O)[C@H](CCCCN)NC(=O)c4cc(NC(=O)[C@H](CCCCN)NC(=O)Cc5ccccc5)ccc4OC)ccc3OC)ccc2OCC(=O)O)cc1C(N)=O [Compound 356] | 0.1 µM | – | 1.89 µM | 0.127 µM | – | 0.512 µM | 0.204 | > 1000 | – | – | – | – | – |
| COc1ccc(NC(=O)[C@H](CCCCN)NC(=O)c2cc(NC(=O)[C@H](CCCCN)NC(=O)c3cc(NC(=O)[C@H](CCCCN)NC(=O)c4cc(NC(=O)[C@H](CCCCN)NC(=O)[C@@H](N)Cc5ccccc5)ccc4OC)ccc3OC)ccc2OC)cc1C(N)=O [Compound 357] (H-FK[3Abz(6-OMe)]K[3Abz(6-OMe)]K[3Abz(6-OMe)]K-{NH(3-CONH2-4-OMe-phenyl)}) | 0.118 µM | > 1000 | 1.42 µM | 0.248 µM | – | 2.22 µM | 0.187 | – | – | – | – | – | – |
| COc1ccc(NC(=O)[C@H](CCCCN)NC(=O)c2cc(NC(=O)[C@H](CCCCN)NC(=O)c3cc(NC(=O)[C@H](CCCCN)NC(=O)c4cc(NC(=O)[C@H](CCCCN)NC(=O)[C@@H](N)Cc5ccccc5)ccc4OC)ccc3OC)ccc2OCC(=O)O)cc1C(N)=O [Compound 358] (H-FK[3Abz(6-OMe)]K[3Abz(6-OMe)]K[X1]K-{NH(3-CONH2-4-OMe-phenyl)}) | 0.184 µM | > 1000 | 1.93 µM | 0.324 µM | – | 1.6 µM | 0.314 | – | – | – | – | – | – |
| COc1ccc(NC(=O)[C@@H](CCCNC(N)=O)NC(=O)c2cc(NC(=O)[C@@H](CCCNC(=N)N)NC(=O)c3cc(NC(=O)[C@@H](CCCNC(=N)N)NC(=O)c4cc(NC(=O)[C@H](N)CCCNC(N)=O)ccc4OC)ccc3OC)ccc2OC)cc1C(N)=O [Compound 377] | – | – | – | – | – | – | – | – | 0.092 | 2.09 | 0.149 | 1.44 | 0.66 |
| COc1ccc(NC(=O)[C@@H](CCCNC(=N)N)NC(=O)c2cc(NC(=O)[C@@H](CCCNC(N)=O)NC(=O)c3cc(NC(=O)[C@@H](CCCNC(=N)N)NC(=O)c4cc(NC(=O)[C@H](N)CCCNC(N)=O)ccc4OC)ccc3OC)ccc2OC)cc1C(N)=O [Compound 378] | – | – | – | – | – | – | – | – | 0.073 | 2.01 | 0.11 | 2.33 | 0.49 |
| COc1cc(OC)c(C(=O)N[C@H]2CC[C@@H](NC(=O)c3cc(C(=O)N[C@H]4CC[C@@H](N=C(N(C)C)N(C)C)CC4)c(OC)cc3OC)CC2)cc1C(=O)NCCN [Compound 382] | > 5 µM | – | > 10 µM | > 5 µM | – | > 10 µM | > 20 | – | – | – | – | – | – |
| COc1cc(OC)c(C(=O)N[C@H]2CC[C@@H](NC(=O)c3cc(C(=O)N[C@H]4CC[C@@H](N)CC4)c(OC)cc3OC)CC2)cc1C(=O)NCCN [Compound 383] | > 5 µM | – | > 10 µM | > 5 µM | – | > 10 µM | > 20 | – | – | – | – | – | – |
| COc1cc(OC)c(C(=O)N2CCC(NC(=O)c3cc(C(=O)NC4CCN(C(=O)c5cc(C(=O)NCCN)c(OC)cc5OC)CC4)c(OC)cc3OC)CC2)cc1C(=O)NCCN [Compound 384] | > 5 µM | – | > 10 µM | > 5 µM | – | > 10 µM | > 20 | – | – | – | – | – | – |
| COc1cc(OC)c(C(=O)NC2CCN(C(=O)c3cc(C(=O)NCCN)c(OC)cc3OC)CC2)cc1C(=O)O [Compound 385] | > 5 µM | – | > 10 µM | > 5 µM | – | > 10 µM | > 20 | – | – | – | – | – | – |
| COc1cc(OC)c(C(=O)NCCNC(=O)c2cc(C(=O)NCCN)c(OC)cc2OC)cc1C(=O)O [Compound 387] | > 5 µM | – | > 10 µM | > 5 µM | – | > 10 µM | > 20 | – | – | – | – | – | – |
| COc1cc(OC)c(C(=O)N[C@H]2CC[C@@H](NC(=O)c3cc(C(=O)N[C@H]4CC[C@@H](N=C(N(C)C)N(C)C)CC4)c(OC)cc3OC)CC2)cc1C(N)=O [Compound 388] | > 5 µM | – | > 10 µM | > 5 µM | – | > 10 µM | > 20 | – | – | – | – | – | – |
| COc1cc(OC)c(C(=O)N[C@H]2CC[C@H](NC(=O)c3cc(C(=O)N[C@H]4CC[C@H](N=C(N(C)C)N(C)C)CC4)c(OC)cc3OC)CC2)cc1C(N)=O [Compound 389] | 6.73 µM | – | > 10 µM | 5.61 µM | – | > 10 µM | > 10 | – | – | – | – | – | – |
